“Also recorded” adds a separate entry of the source.
Legend:
Molm-13 cells [1] = assay: Annexin V apoptosis assay in Molm-13 cells; assay type: cell-based; conditions: 7 days
Experimental: (§1) Treatment of Molm-13 cells with compound 1 for 7 days at 1 and 3 µM caused significant apoptosis of 22.7% and 67.6%, respectively (Fig. 6c and Additional file 1: Fig. S6).
(§2) For Annexin V apoptosis assay, 10^5 cells/mL were incubated with increasing concentrations of a compound for 7 days. Apoptosis was determined using the FITC Annexin V Apoptosis Detection Kit I (BD Bioscience) using the manufacturer’s protocol. For other FACS assays, cells were labeled with fluorochrome-conjugated monoclonal antibodies against human CD14 and CD11b (BD Biosciences) according to the manufacturer’s recommendation. Cells were analyzed using a FACS Calibur (BD Biosciences/Applied Biosystems), and data were processed using the program Flowjo (version7.6.5).

Molm-13 cells [2] = assay: Cell differentiation (CD14, CD11b, FACS) in Molm-13 cells; assay type: cell-based, human; conditions: 3 μM for 5 days
Experimental: as §1, §2

[3] = In vivo toxicity in C57BL/6 mice; conditions: 30 mg/kg/day for 13 days
Experimental: In vivo antitumor activity of compound 1 was evaluated in a commonly used mouse model of Molm-13 leukemia. First, in vivo toxicity was assessed in C57BL/6 mice. […] Next, 10^6 Molm-13 cells were injected subcutaneously into NOD-SCID mice, which developed palpable tumors in ~ 1 week and grew rapidly.

mutant ENL (mENL) = molecular target: T1, mutant ENL (mENL) (Homo sapiens, UniProt Q03111+Q96SW2, INS117NHL); assay: Degradation of mutant and WT ENL in mENL-transfected HEK293T cells (Western blot); assay type: cell-based
T1 construct: FLAG (DYK); expressed in transfected cells; host or cells: HEK293T
T1 sequence (Q03111 with tags, fused parts or gaps INS117NHL): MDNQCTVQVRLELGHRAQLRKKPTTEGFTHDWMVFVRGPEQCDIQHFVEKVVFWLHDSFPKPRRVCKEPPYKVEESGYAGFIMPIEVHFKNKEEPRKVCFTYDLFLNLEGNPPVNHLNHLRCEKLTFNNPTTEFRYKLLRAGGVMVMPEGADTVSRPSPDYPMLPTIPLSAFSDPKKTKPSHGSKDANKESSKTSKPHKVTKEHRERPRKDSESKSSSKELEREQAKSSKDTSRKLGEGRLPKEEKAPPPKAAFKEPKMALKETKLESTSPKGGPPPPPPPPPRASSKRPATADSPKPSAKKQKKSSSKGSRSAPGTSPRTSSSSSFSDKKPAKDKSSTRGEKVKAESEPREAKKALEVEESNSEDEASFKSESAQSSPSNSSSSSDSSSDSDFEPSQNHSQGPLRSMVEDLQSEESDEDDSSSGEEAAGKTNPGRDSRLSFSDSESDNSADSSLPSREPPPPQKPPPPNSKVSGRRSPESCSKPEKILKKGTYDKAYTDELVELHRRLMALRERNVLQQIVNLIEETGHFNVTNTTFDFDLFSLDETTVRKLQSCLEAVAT
T1 sequence (Q96SW2 whole entry, stated change not applied): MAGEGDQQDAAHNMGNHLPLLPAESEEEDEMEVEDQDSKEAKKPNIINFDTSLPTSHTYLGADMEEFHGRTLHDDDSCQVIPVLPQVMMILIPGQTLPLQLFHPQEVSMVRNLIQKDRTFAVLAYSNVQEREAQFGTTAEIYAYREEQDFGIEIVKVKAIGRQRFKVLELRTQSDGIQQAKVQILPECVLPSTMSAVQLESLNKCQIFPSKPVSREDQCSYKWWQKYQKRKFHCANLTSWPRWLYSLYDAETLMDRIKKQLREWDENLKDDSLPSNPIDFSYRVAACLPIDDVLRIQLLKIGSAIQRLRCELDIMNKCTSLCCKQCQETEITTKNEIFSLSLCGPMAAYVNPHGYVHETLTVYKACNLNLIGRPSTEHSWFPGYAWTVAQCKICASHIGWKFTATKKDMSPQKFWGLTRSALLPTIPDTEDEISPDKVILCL
T1 sequence (Q16531 whole entry partner): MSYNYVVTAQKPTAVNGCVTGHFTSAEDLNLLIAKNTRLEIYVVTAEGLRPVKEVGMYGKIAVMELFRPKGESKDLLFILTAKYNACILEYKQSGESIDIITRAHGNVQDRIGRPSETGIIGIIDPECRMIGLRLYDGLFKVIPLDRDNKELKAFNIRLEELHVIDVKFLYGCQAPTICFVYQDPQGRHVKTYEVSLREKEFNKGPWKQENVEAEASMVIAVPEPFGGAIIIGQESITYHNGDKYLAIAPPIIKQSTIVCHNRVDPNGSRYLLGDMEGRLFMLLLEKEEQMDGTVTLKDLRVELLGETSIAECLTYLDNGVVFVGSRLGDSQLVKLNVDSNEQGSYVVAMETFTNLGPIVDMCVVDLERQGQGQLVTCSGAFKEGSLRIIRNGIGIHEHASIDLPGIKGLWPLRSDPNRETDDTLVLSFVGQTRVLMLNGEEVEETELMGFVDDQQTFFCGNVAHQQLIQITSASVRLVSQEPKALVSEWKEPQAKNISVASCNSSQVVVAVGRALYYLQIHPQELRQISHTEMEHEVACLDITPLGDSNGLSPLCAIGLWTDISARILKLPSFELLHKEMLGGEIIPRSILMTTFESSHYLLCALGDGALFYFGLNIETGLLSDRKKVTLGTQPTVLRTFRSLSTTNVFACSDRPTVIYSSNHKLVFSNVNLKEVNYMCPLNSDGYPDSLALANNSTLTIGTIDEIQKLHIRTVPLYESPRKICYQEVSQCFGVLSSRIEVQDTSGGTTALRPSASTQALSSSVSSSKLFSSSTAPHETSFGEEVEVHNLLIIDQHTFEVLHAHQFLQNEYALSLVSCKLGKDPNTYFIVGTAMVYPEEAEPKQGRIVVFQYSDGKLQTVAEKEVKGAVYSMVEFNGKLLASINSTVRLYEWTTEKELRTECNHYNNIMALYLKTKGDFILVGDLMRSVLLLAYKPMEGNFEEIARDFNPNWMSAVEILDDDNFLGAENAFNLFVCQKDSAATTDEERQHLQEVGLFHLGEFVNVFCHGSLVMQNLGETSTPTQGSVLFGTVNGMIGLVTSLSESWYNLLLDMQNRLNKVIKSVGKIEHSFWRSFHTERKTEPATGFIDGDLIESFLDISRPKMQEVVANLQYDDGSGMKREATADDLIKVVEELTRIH
Experimental: Ability of compound 1 to degrade mutant ENL, which has been implicated to cause Wilms tumor, was evaluated. […] A pcDNA3.1(+)-N-DYK plasmid containing a mutant ENL (mENL) with a short insertion of -NHL- between L117 and R118 [38] was transfected into 5 × 10^5 HEK293T cells. Upon incubation for 24 h, expression of the FLAG-tagged mENL can be dose-dependently detected with as low as 0.04 μg of the plasmid (Fig. 7a). Using a FLAG antibody appeared to be less quantitative because of a higher background staining for the control samples (Fig. 7a–c, left panels).
With 0.1 μg of the plasmid, compound 1 can efficiently degrade both WT and mutant ENL proteins with Dmax of ~ 95% at ~ 500 nM upon 24 h incubation (Fig. 7b). […] It was ineffective with 1 μg of the plasmid (not shown), presumably because the rate of mENL synthesis in cells was higher than that of 1-mediated degradation.
(§3) 5 × 10^5 HEK293T cells were transfected with mENL containing pcDNA3.1(+)-N-DYK plasmid using jetPRIME (Polyplus Transfection) following the manufacturer's protocol. Upon transfection for 4 h, the media were carefully removed and the cells incubated with fresh media containing the specified concentrations of compound 1 for 24 h before further analysis (using Western blot or qPCR as described above).

HoxA11 and HoxA13 = assay: qPCR expression of HoxA11 and HoxA13 in mENL-transfected HEK293T cells; assay type: cell-based; conditions: 0.04 μg of the plasmid, 24 h incubation
Experimental: Next, we investigated how mENL degradation affect expression of HoxA11 and HoxA13 in this cell model.
as §3

U266 cells = assay: Antiproliferation assay (XTT), U266; conditions: Homo sapiens, U-266, 168 h, read-out: Antiproliferative activity, EC50, U266
Experimental: (§4) Proliferation inhibition assays for suspension blood cancer cells were performed using an XTT assay kit (Biotium), following our previous methods [22]. EC50 values were determined using Prism 5 and from at least three independent experiments.

Molm-13 cells [4] = assay: Antiproliferation assay (XTT), Molm-13
Experimental: as §4

ENL = molecular target: T2, ENL (Homo sapiens, UniProt Q03111); assay: ENL degradation in MV4;11 cells (Western blot); assay type: cell-based; design: endogenous in cells; host or cells: MV4;11; conditions: 24 h
T2 sequence (Q03111 1-559): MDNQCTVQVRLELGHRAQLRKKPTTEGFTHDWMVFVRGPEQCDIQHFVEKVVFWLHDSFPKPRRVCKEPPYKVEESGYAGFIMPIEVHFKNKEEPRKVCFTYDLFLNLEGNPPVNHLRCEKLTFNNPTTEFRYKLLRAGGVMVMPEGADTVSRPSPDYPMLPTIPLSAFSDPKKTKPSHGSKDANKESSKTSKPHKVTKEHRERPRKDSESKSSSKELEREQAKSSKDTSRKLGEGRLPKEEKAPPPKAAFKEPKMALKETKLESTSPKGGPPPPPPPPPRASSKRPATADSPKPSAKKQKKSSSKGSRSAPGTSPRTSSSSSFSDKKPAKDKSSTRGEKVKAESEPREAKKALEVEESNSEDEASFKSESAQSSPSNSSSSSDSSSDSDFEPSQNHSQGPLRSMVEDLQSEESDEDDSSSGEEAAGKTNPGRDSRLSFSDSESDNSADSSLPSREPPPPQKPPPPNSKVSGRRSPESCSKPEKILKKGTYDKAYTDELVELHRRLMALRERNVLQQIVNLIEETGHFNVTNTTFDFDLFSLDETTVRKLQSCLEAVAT
Experimental: We next tested whether these compounds degrade ENL and AF9 in MV4;11 leukemia cells with the MLL1-AF4 oncogene. Upon compound treatment for 24 h, the cells were washed, lysed, and the lysates subjected to SDS-PAGE (sodium dodecyl sulfate–polyacrylamide gel electrophoresis) followed by detection with Western blot.
3 × 10^6 cells/well were treated with increasing concentrations of a compound for 1 day, and whole proteins were extracted. Equal amounts of proteins were separated on SDS-PAGE and transferred to PVDF membranes. The blots were probed with primary antibodies, followed by anti-rabbit IgG (Thermo Scientific) secondary antibodies. The primary antibodies against ENL (Cell signaling #14893), AF9 (Novusbio #NB100-1565), DOT1L (Cell signaling #77087), AFF4 (Abcam #ab103586), Cyclin T1 (Cell signaling #81464), H3K79me2 (Cell signaling #5427), H3K79me1 (Cell signaling #9398), Histone H3 (Cell signaling #4499), FLAG (Sigma-Aldrich #F1804), β-Actin (Cell signaling #4970) were used in this study.

## C[C@H]1CCCN1Cc1nc2cc(NC(=O)c3ccc4c(cnn4CCCCCCCCNc4cccc5c4C(=O)N(C4CCC(=O)NC4=O)C5=O)c3)ccc2[nH]1 (some centres unmarked) [Compound 1]
Molm-13 cells [1]; 0.5 μM
  Apoptosis: ≤ 5%
Molm-13 cells [1]; 1 µM
  Apoptosis: 22.7%
Molm-13 cells [1]; 3 µM
  Apoptosis: 67.6%
Molm-13 cells [2]
  Cell differentiation (cells with high levels of CD14 and CD11b): induced cell differentiation
[3]
  Body weight: did not cause significant weight losses
  Hematopoiesis and overt toxicities: did not inhibit normal hematopoiesis or cause other overt toxicities
[3]; blood test on day-14, 30 mg/kg/day
  Blood cell counts versus control: no significant changes; also recorded: no significant differences
Mutant ENL (mENL); 0.2 μg of the plasmid, 500 nM, 24 h
  Degradation of WT and mutant ENLs: reduced efficiency
Mutant ENL (mENL); 1 μg of the plasmid
  Degradation of WT and mutant ENLs: ineffective
Mutant ENL (mENL); HEK-293T, 0.1 μg of the plasmid, ~ 500 nM, 24 h
  Dmax: ~95%
HoxA11 and HoxA13
  Overexpression of HoxA11 and HoxA13: significantly inhibited overexpression
U266 cells
  EC50: 4100 ± 1800 nM
Molm-13 cells [4]; Homo sapiens, MOLM-13, 168 h, read-out: EC50 against proliferation of Molm-13 cells
  EC50: 320 nM
Molm-13 cells [4]; Molm-13 cells
  Time-dependent activity against cell proliferation: did not inhibit cell proliferation during the first 4 days
ENL; MV4-11, MV4;11 cells, read-out: Dmax (maximal degradation) of ENL
  Dmax: ~95%
ENL; MV4;11 cells
  Concentration of maximal ENL-degrading activity (hook effect above): ~ 500 nM
ENL; MV4;11 cells, read-out: DC50 (concentration at which a protein is reduced by 50%) of ENL
  DC50: 37 nM

Source: article PMC8994274, “A proteolysis-targeting chimera molecule selectively degrades ENL and inhibits malignant gene expression and tumor growth” (Journal of Hematology & Oncology, 2022)
